Source: patent US20210077491A1, “PHARMACEUTICAL COMPOSITION” (Kowa Company, Ltd., priority 2017, published 2021)

Columns and labels:
Type in all cases: in vivo, mouse
[1] = tested on: pulmonary fibrosis model mice (intratracheal bleomycin); test: Lung weight in bleomycin-induced pulmonary fibrosis model mice, preventive dosing (Example 1); conditions: male ICR mice, bleomycin 1.5 mg/kg intratracheal, lungs at day 21, FIG. 1; for lung weight as compared to the normal group: oral from the day after exposure, compound A 50 mg/kg/day, losartan 50 mg/kg/day, pirfenidone 400 mg/kg/day
Experimental: (§1) 6-week-old male ICR mice (Japan SLC, Inc.) were exposed to bleomycin (Nippon Kayaku Co., Ltd.) (1.5 mg/kg) dissolved in physiological saline in the trachea to prepare pulmonary fibrosis model mice.
(§2) Investigation was conducted in mice not exposed to bleomycin (exposed to physiological saline in the trachea) in the normal group (6 mice), and pulmonary fibrosis model mice exposed to bleomycin in the trachea divided into 4 groups (control, compound A 50 mg/kg/day, losartan 50 mg/kg/day, and pirfenidone 400 mg/kg/day; 10 mice in each group). From the day after exposure to bleomycin, a 0.5% aqueous solution of methylcellulose was orally administered (administered twice a day) to the normal group and the control group, the sample solution of compound A prepared above was orally administered (administered once a day) to the compound A administration group, the sample solution of losartan prepared above was orally administered (administered once a day) to the losartan administration group, and the sample solution of pirfenidone prepared above was orally administered (administered twice a day) to the pirfenidone administration group, respectively. Twenty-one days after the bleomycin exposure, the mice were anesthetized and whole lung tissues were extracted.
After washing the lung tissue extracted from the mouse with physiological saline, water was removed with a filter paper, and the wet weight was measured.

[2] = tested on: pulmonary fibrosis model mice (intratracheal bleomycin); test: Amount of hydroxyproline in the lungs of bleomycin-induced pulmonary fibrosis model mice, preventive dosing (Example 1); conditions: preventive: oral from the day after bleomycin exposure, FIG. 2; for hydroxyproline in the lung as compared to the control group: compound A 50 mg/kg/day, losartan 50 mg/kg/day, lungs at day 21, Dunnett test
Experimental: as §1, §2
The lung tissue extracted from the mouse was homogenized in a PBS solution, then mixed with an equal volume of 12N hydrochloric acid in a tube, and incubated at 110° C. for 20 to 24 hours. After the incubation, the solution was volatilized by opening the tube and continuing the incubation. […] 10 μL of the sample was added with 100 μL of chloramine T solution (1.4% chloramine T, 10% n-propanol, 80% citrate acetate buffer) and incubated at room temperature for 20 minutes, then added with 100 μL of Ehrlich's reagent (1 M p-dimethylamino benzaldehyde, 20% perchloric acid, 50% n-propanol) and incubated at 65° C. for 15 minutes, and the absorbance at 550 nm was measured to quantify the amount of hydroxyproline.

[3] = tested on: pulmonary fibrosis model mice (intratracheal bleomycin); test: Amount of hydroxyproline in the lungs of bleomycin-induced pulmonary fibrosis model mice, therapeutic dosing (Example 2); conditions: therapeutic: oral from the 7th day after bleomycin exposure; compound A 50 mg/kg/day, losartan 50 mg/kg/day, pirfenidone 400 mg/kg/day; lungs at day 21; Dunnett test; FIG. 3
Experimental: Model mice were prepared in the same manner as in Example 1.
as §2, with “From the 7th day after” for “From the day after”
The amount of hydroxyproline in the mice was measured by the same method as in Example 1.

Compound | lung weight as compared with the control group ([1]; oral 50 mg/kg/day once a day from the day after exposure, Dunnett test p<0.05) | lung weight as compared to the normal group [1] | decrease in hydroxyproline in the lung relative to the losartan administration group ([2]; compound A 50 mg/kg/day vs losartan 50 mg/kg/day, day 21) | hydroxyproline in the lung as compared to the control group [2] | hydroxyproline in the lung as compared to the control group [3]
CCCc1nc(C(C)C)n(-c2ncc(OCC)cn2)c(=O)c1Cc1ccc(-c2ccccc2-c2noc(=O)[nH]2)nc1 [compound A, 3-[2-(5-{[1-(5-ethoxypyrimidin-2-yl)-2-isopropyl-6-oxo-4-propyl-1,6-dihydropyrimidin-5-yl]methyl}pyridin-2-yl)phenyl]-1,2,4-oxadiazol-5(4H)-one] | significant decrease in lung weight | no significant increase in lung weight | larger decrease than the losartan administration group | significant decrease in hydroxyproline in the lung | significant decrease in hydroxyproline in the lung
CCCCc1nc(Cl)c(CO)n1Cc1ccc(-c2ccccc2-c2nn[nH]n2)cc1 [losartan] |  | significant increase in lung weight |  | significant decrease in hydroxyproline in the lung | no significant difference
Cc1ccc(=O)n(-c2ccccc2)c1 [pirfenidone] |  | significant increase in lung weight |  |  | no significant difference
